According to PubChem BioAssay AID330 (DTP/NCI, 2004):
Where “and” joins values, the source holds several entries; their conditions need not be identical. Identical values can stand only once. Inconclusive results and toxic doses are left out. Square brackets hold non-standard residues; d marks the D form. Peptide text beside a SMILES is read from it. ξ: configuration not given here. ξY = NC(Cc1ccc(O)cc1)C(=O)O; ξhCys = NC(CCS)C(=O)O

Tested on: P388 leukemia ip, CD2F1 mice, survival T/C
Test: NCI In Vivo Anticancer Drug Screen. Data for tumor model P388 Leukemia (intraperitoneal) in CD2F1 (CDF1) mice
Settings: endpoint: median survival time, higher = longer survival
Outline: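 Mice carrying the transplanted tumor received test compound or vehicle. Survival was recorded in each group, and the value is the treated-group measurement divided by that of the vehicle-treated control group.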

[1] = dose: 60.0 mg/kg/injection, schedule: Q01DX005 (ip), vehicle: saline with Tween-80
[2] = dose: 120.0 mg/kg/injection, schedule: Q01DX005 (ip), vehicle: saline with Tween-80
[3] = dose: 240.0 mg/kg/injection, schedule: Q01DX005 (ip), vehicle: saline with Tween-80
[4] = dose: 50.0 mg/kg/injection, schedule: Q01DX009 (ip), vehicle: saline
[5] = dose: 100.0 mg/kg/injection, schedule: Q01DX009 (ip), vehicle: saline with Tween-80
[6] = dose: 100.0 mg/kg/injection, schedule: Q01DX009 (ip), vehicle: saline
[7] = dose: 200.0 mg/kg/injection, schedule: Q01DX009 (ip), vehicle: saline with Tween-80
[8] = dose: 200.0 mg/kg/injection, schedule: Q01DX009 (ip), vehicle: saline
[9] = dose: 400.0 mg/kg/injection, schedule: Q01DX009 (ip), vehicle: saline
[10] = dose: 100.0 mg/kg/injection, schedule: Q04DX002 (ip), vehicle: saline with Tween-80
[11] = dose: 25.0 mg/kg/injection, schedule: Q01DX009 (ip), vehicle: saline
[12] = dose: 50.0 mg/kg/injection, schedule: Q01DX009 (ip), vehicle: saline with Tween-80
[13] = dose: 50.0 mg/kg/injection, schedule: Q01DX005 (ip), vehicle: saline with Tween-80
[14] = dose: 100.0 mg/kg/injection, schedule: Q01DX005 (ip), vehicle: saline with Tween-80
[15] = dose: 200.0 mg/kg/injection, schedule: Q01DX005 (ip), vehicle: saline with Tween-80

## Cc1ccnc2cc(N(C)C)ccc12
dose: 7.5 mg/kg/injection, schedule: Q01DX005 (ip), vehicle: Klucel (hydroxypropylcellulose) (HPC)
  T/C: 101 % of control
dose: 15.0 mg/kg/injection, schedule: Q01DX005 (ip), vehicle: Klucel (hydroxypropylcellulose) (HPC)
  T/C: 98 % of control
dose: 30.0 mg/kg/injection, schedule: Q01DX005 (ip), vehicle: Klucel (hydroxypropylcellulose) (HPC)
  T/C: 99 % of control
dose: 60.0 mg/kg/injection, schedule: Q01DX005 (ip), vehicle: Klucel (hydroxypropylcellulose) (HPC)
  T/C: 92 % of control

## N#CCc1ccccc1C(C#N)C(=O)CCC(=O)C(C#N)c1ccccc1CC#N (stereo not given)
[1]
  T/C: 104 % of control
[2]
  T/C: 103 % of control
[3]
  T/C: 102 % of control

## O=C(O)c1cccnc1C(=O)Nc1cccc2ccccc12
dose: 15.0 mg/kg/injection, schedule: Q01DX005 (ip), vehicle: saline with Tween-80
  T/C: 102 % of control
dose: 30.0 mg/kg/injection, schedule: Q01DX005 (ip), vehicle: saline with Tween-80
  T/C: 98 % of control
[1]
  T/C: 99 % of control (2×) and 93 % of control
[3]
  T/C: 86 % of control and 92 % of control

## CCOC(=O)C(CNc1ccc(O)cc1)NC(=O)c1ccccc1 (stereo not given)
[4]
  T/C: 101 % of control
[5]
  T/C: 94 % of control
[6]
  T/C: 103 % of control
[7]
  T/C: 94 % of control
[8]
  T/C: 102 % of control
dose: 400.0 mg/kg/injection, schedule: Q01DX009 (ip), vehicle: saline with Tween-80
  T/C: 94 % of control
[9]
  T/C: 101 % of control

## C/C(=N\N=C(\N)N1CCOCC1)c1ccc2c(c1)Cc1ccccc1-2
[10]
  T/C: 101 % of control

## CCOC(=O)c1cnc2c(c(Br)cc3c4cc(Br)ccc4[nH]c32)c1Cl
dose: 6.25 mg/kg/injection, schedule: Q01DX009 (ip), vehicle: saline
  T/C: 112 % of control
dose: 12.5 mg/kg/injection, schedule: Q01DX009 (ip), vehicle: saline
  T/C: 107 % of control
[11]
  T/C: 111 % of control
[4]
  T/C: 97 % of control
[6]
  T/C: 91 % of control
[8]
  T/C: 88 % of control

## COc1c(C)n(C2OC(CO)C(O)C2O)ccc1=O (stereo not given)
[4]
  T/C: 104 % of control
[6]
  T/C: 100 % of control
[8]
  T/C: 103 % of control
[9]
  T/C: 98 % of control

## C=CC[N+](CCO)(CCO)CCCCCCCCCCCCCCCCCC
dose: 6.25 mg/kg/injection, schedule: Q01DX009 (ip), vehicle: saline with Tween-80
  T/C: 114 % of control
dose: 12.5 mg/kg/injection, schedule: Q01DX009 (ip), vehicle: saline with Tween-80
  T/C: 108 % of control

## [S-]c1n[n+](-c2ccccc2)c(-c2ccccc2)s1
[12]
  T/C: 100 % of control
[5]
  T/C: 100 % of control
[7]
  T/C: 93 % of control

## O=NN(CCS(=O)CCCl)C(=O)NC1CCCCC1 (stereo not given)
dose: 3.13 mg/kg/injection, schedule: Q01DX009 (ip), vehicle: water
  T/C: 102 % of control
dose: 6.25 mg/kg/injection, schedule: Q01DX009 (ip), vehicle: water
  T/C: 110 % of control
dose: 12.5 mg/kg/injection, schedule: Q01DX009 (ip), vehicle: water
  T/C: 111 % of control
dose: 25.0 mg/kg/injection, schedule: Q01DX009 (ip), vehicle: water
  T/C: 124 % of control
dose: 100.0 mg/kg/injection, schedule: Q01DX009 (ip), vehicle: water
  T/C: 159 % of control

## O=C1C=CC(=O)C2=C1C1CCCC1C1CCCC21 (stereo not given)
[11]
  T/C: 123 % of control
[4]
  T/C: 105 % of control
[6]
  T/C: 113 % of control

## O=c1cc(-c2ccccc2)oc2c(OCc3ccccc3)c(OCc3ccccc3)ccc12
[10]
  T/C: 100 % of control
dose: 200.0 mg/kg/injection, schedule: Q04DX002 (ip), vehicle: saline with Tween-80
  T/C: 102 % of control
dose: 400.0 mg/kg/injection, schedule: Q04DX002 (ip), vehicle: saline with Tween-80
  T/C: 96 % of control

## CC[N+](C)(CC)CCNc1cc2c(c3c(=O)c4ccccc4sc13)CCCC2
dose: 25.0 mg/kg/injection, schedule: Q01DX005 (ip), vehicle: distilled water + Tween-80
  T/C: 119 % of control
dose: 50.0 mg/kg/injection, schedule: Q01DX005 (ip), vehicle: distilled water + Tween-80
  T/C: 106 % of control
dose: 100.0 mg/kg/injection, schedule: Q01DX005 (ip), vehicle: distilled water + Tween-80
  T/C: 101 % of control

## Nc1nc(N)c2ncn(Cc3c(Cl)cccc3Cl)c2n1
dose: 50.0 mg/kg/injection, schedule: Q01DX005 (ip), vehicle: distilled water + alcohol
  T/C: 95 % of control
dose: 100.0 mg/kg/injection, schedule: Q01DX005 (ip), vehicle: distilled water + alcohol
  T/C: 97 % of control
dose: 200.0 mg/kg/injection, schedule: Q01DX005 (ip), vehicle: distilled water + alcohol
  T/C: 93 % of control

## COC(=O)CCCC1=NCCS1
[13]
  T/C: 103 % of control
[14]
  T/C: 103 % of control
[15]
  T/C: 112 % of control

## O=C(NC1CC(c2ccccc2)(c2ccccc2)OC1=O)c1ccccc1 (stereo not given)
[12]
  T/C: 100 % of control
[5]
  T/C: 86 % of control

## NCC(=O)NC(Cc1ccc(O)cc1)C(=O)NCC(=O)O (stereo not given) (H-Gly-[ξY]-Gly-OH)
dose: 50.0 mg/kg/injection, schedule: Q01DX005 (ip), vehicle: Klucel (hydroxypropylcellulose) (HPC)
  T/C: 99 % of control
dose: 100.0 mg/kg/injection, schedule: Q01DX005 (ip), vehicle: Klucel (hydroxypropylcellulose) (HPC)
  T/C: 98 % of control
dose: 200.0 mg/kg/injection, schedule: Q01DX005 (ip), vehicle: Klucel (hydroxypropylcellulose) (HPC)
  T/C: 98 % of control

## COC(=O)C(NC(N)=O)SC (stereo not given)
dose: 50.0 mg/kg/injection, schedule: Q04DX003 (ip), vehicle: saline with Tween-80
  T/C: 96 % of control
dose: 100.0 mg/kg/injection, schedule: Q04DX003 (ip), vehicle: saline with Tween-80
  T/C: 100 % of control
dose: 200.0 mg/kg/injection, schedule: Q04DX003 (ip), vehicle: saline with Tween-80
  T/C: 99 % of control

## O=Cc1c(-c2ccccc2)nc2sc(-c3ccc4c(c3)OCO4)nn12
[1]
  T/C: 102 % of control
[2]
  T/C: 99 % of control
[3]
  T/C: 99 % of control

## CCC(c1ccc(OC)cc1)C(NCC(=O)N/N=C1/C=C2CC[C@H]3[C@@H]4CC[C@H](O)[C@@]4(C)CC[C@@H]3[C@@]2(C)CC1)c1ccc(OC)cc1 (stereo not given in full)
dose: 100.0 mg/kg/injection, schedule: Q01DX001 (ip), vehicle: saline with Tween-80
  T/C: 100 % of control
dose: 200.0 mg/kg/injection, schedule: Q01DX001 (ip), vehicle: saline with Tween-80
  T/C: 110 % of control
dose: 400.0 mg/kg/injection, schedule: Q01DX001 (ip), vehicle: saline with Tween-80
  T/C: 107 % of control

## Cc1ccc(N)c(C(=O)Nc2ccc(Cl)cc2)c1
[13]
  T/C: 104 % of control
[14]
  T/C: 91 % of control
[15]
  T/C: 92 % of control

## O=C1COC(c2ccccc2O)=NN1CCN1CCOCC1
[12]
  T/C: 103 % of control
[5]
  T/C: 103 % of control
[7]
  T/C: 94 % of control

## Cc1ccc2c(c1)C1(SC(C)C(=O)N1c1ccc(F)cc1)C(=O)N2 (stereo not given)
[1]
  T/C: 89 % of control
[2]
  T/C: 90 % of control
[3]
  T/C: 87 % of control

## O=c1ccc2cc3ccoc3c(OCCCCCCBr)c2o1
dose: 100.0 mg/kg/injection, schedule: Q04DX002 (ip), vehicle: Klucel (hydroxypropylcellulose) (HPC)
  T/C: 91 % of control
dose: 200.0 mg/kg/injection, schedule: Q04DX002 (ip), vehicle: Klucel (hydroxypropylcellulose) (HPC)
  T/C: 99 % of control
dose: 400.0 mg/kg/injection, schedule: Q04DX002 (ip), vehicle: Klucel (hydroxypropylcellulose) (HPC)
  T/C: 98 % of control

## CCSCCC(NC(=O)CN)C(=O)O (stereo not given) (H-Gly-[ξhCys](Et)-OH)
[4]
  T/C: 112 % of control
[6]
  T/C: 94 % of control

## CC(C)=NNC(N)=S
dose: 12.5 mg/kg/injection, schedule: Q04DX003 (ip), vehicle: Klucel (hydroxypropylcellulose) (HPC)
  T/C: 93 % of control
dose: 25.0 mg/kg/injection, schedule: Q04DX003 (ip), vehicle: Klucel (hydroxypropylcellulose) (HPC)
  T/C: 100 % of control

## C[Si](C)(C)C#CC(OS(=O)(=O)C(F)(F)F)=C(c1ccccc1)c1ccccc1
[13]
  T/C: 98 % of control
[14]
  T/C: 99 % of control
[15]
  T/C: 92 % of control

## Oc1c(Br)cc(Br)cc1C1CCCCC1
dose: 25.0 mg/kg/injection, schedule: Q01DX009 (ip), vehicle: saline with Tween-80
  T/C: 110 % of control
[12]
  T/C: 119 % of control
[5]
  T/C: 107 % of control
[7]
  T/C: 113 % of control

## CC1CC23C4CCCN2CC2OC2C13C1CC4OC1=O (stereo not given)
dose: 12.5 mg/kg/injection, schedule: Q01DX009 (ip), vehicle: Klucel (hydroxypropylcellulose) (HPC)
  T/C: 114 % of control
dose: 25.0 mg/kg/injection, schedule: Q01DX009 (ip), vehicle: Klucel (hydroxypropylcellulose) (HPC)
  T/C: 113 % of control
dose: 50.0 mg/kg/injection, schedule: Q01DX009 (ip), vehicle: Klucel (hydroxypropylcellulose) (HPC)
  T/C: 115 % of control
dose: 100.0 mg/kg/injection, schedule: Q01DX009 (ip), vehicle: Klucel (hydroxypropylcellulose) (HPC)
  T/C: 113 % of control
